Results on 56 molecules are retold here after article PMC5118696, “Identification of inhibitors that dually target the new permeability pathway and dihydroorotate dehydrogenase in the blood stage of Plasmodium falciparum” (Scientific Reports, 2016).

Structures are written as SMILES. Read-outs that look alike come from different tables or passages of the source.

Test [1] deals with Hyp1-NLuc Plasmodium falciparum-infected erythrocytes (new permeability pathway, NPP). In words: microbe, parasite or virus in culture. To be noted: Erythrocyte, 0.33 h, read-out: % of control remaining.
Test [2] shares this test system. The test is described as follows: microbe, parasite or virus in culture. To be noted: Erythrocyte, 0.33 h, read-out: Mean RLU at 28 min (As % of DMSO control).

On to `CN1c2ccccc2N(C)C1c1ccc2c(c1)OCO2` [MMV666009], for which the activity at 2 µM in test [1] amounted to 114%; in test [2], 104%.
As for `Cc1ccc(OCCCCCCNCCO)c(C)c1` [MMV666020], the activity at 2 µM in test [1] worked out at 97.1%; in test [2], 97%.
For `Cc1ccc(-c2cc3c(nn2)-c2ccccc2C3=O)cc1` [MMV666021] the same measures were 99.7% and 104%.
On the same counts, the results for `COc1ccc(C(=O)NC(c2ccccc2Cl)c2cc(Cl)c3cccnc3c2O)cc1` (stereo not shown) [MMV666022] are 113% and 104%.
On the same counts, the results for `c1ccc(Cn2c(N=Nc3c(Nc4ccccc4)ccc4ccccc34)nc3ccccc32)cc1` [MMV666023] are 101% and 102%.
With `OC(Cn1nnc2ccccc21)Cn1c2ccc(Br)cc2c2cc(Br)ccc21` (stereo not shown) [MMV666025], the activity at 2 µM in test [1] is 105%; in test [2], 99.5%.
Take `COc1ccc(-c2cc3c(nn2)-c2ccccc2C3=O)cc1` [MMV666026]: the activity at 2 µM in test [1] was determined as 108%; in test [2] it was 98.8%.
As for `COc1ccc(C(=O)NC(c2ccc(Cl)cc2Cl)c2cc(Cl)c3cccnc3c2O)cc1` (stereo not shown) [MMV666054], the values for the activity at 2 µM in test [1] and in test [2] were 106% and 101%, respectively.
With `O=C(Nc1ccc(Cl)cc1C(=O)Nc1ccncc1)c1ccc(Cl)cc1Cl` [MMV666057], the activity at 2 µM in test [1] came to 119%; in test [2] it was 105%.
As to `COc1ccc(CN2CCCC(C(=O)c3ccc(C(F)(F)F)cc3)C2)c(O)c1` (stereo not shown) [MMV666060], the results for the activity at 2 µM in test [1] and in test [2] were 114% and 103%, respectively.
Take `COc1cccc(O)c1CN1CCC2(CCCN(Cc3ccc(F)cc3)C2)C1` (stereo not shown) [MMV666061]: the values for the activity at 2 µM in test [1] and in test [2] were 126% and 111%, respectively.
As to `Cc1ccc(N2C(=O)C3C(C2=O)C2(c4ccccc4)C(=O)C3(c3ccccc3)C(c3ccccc3)=C2c2ccccc2)cc1` (stereo not shown) [MMV666062], the activity at 2 µM in test [1] is 97.6%; in test [2], 106%.
Take `COc1ccc(CNC2CCN(c3ccc(NC(=O)c4cccc(Cl)c4)cc3)CC2)cc1OC` [MMV666067]: the results for the activity at 2 µM in test [1] and in test [2] were 111% and 101%, respectively.
In the case of `COc1ccc(CCN2CCC(CN(C)Cc3cnn(-c4ccccc4)c3)CC2)cc1` [MMV666069], the activity at 2 µM came to 105% in test [1] and 102% in test [2].
For `O=C(NC1CCCC1)c1ccc(N2CCC(NCc3cccc(C(F)(F)F)c3)CC2)cc1` [MMV666070], the figures for the activity at 2 µM in test [1] and in test [2] were 123% and 111%, respectively.
Consider `Cc1ccc(CN2CCC(C(=O)Nc3ccc(-c4cc5ccccc5[nH]4)cc3)CC2)o1` [MMV666071], for which the activity at 2 µM in test [1] worked out at 101%; in test [2], 94.8%.
For the molecule `COCCNC(=O)c1ccc(OC2CCN(Cc3ccc(F)c(F)c3)CC2)c(Cl)c1` [MMV666072], the activity at 2 µM in test [1] was 115%; in test [2], 103%.
For `COc1ccc(C2N(C)c3ccccc3N2C)cc1` [MMV666075] the same measures were 123% and 109%.
Take `Cc1ccc2cc3c(N)c4c(C)ccc(C)c4nc3nc2c1` [MMV666079]: the activity at 2 µM worked out at 104% in test [1] and 96% in test [2].
Consider `O=C(NC(c1ccccc1)c1ccc2cccnc2c1O)c1ccccc1` (stereo not shown) [MMV666080], for which the activity at 2 µM in test [1] was 114%; in test [2] it was 104%.
On the same counts, the results for `CCCc1c(C)nc2ccccc2c1O` [MMV666081] are 115% and 105%.
On the same counts, the results for `CCCC(c1nnnn1C1CCCCC1)N1CCN(C(=O)c2ccco2)CC1` (stereo not shown) [MMV666093] are 113% and 104%.
On the same counts, the results for `CCCc1c(C)nc2ccc(Br)cc2c1O` [MMV666095] are 113% and 104%.
Turning to `COc1ccc(C2=C(c3ccc(OC)cc3)C3(c4ccccc4)C(=O)C2(c2ccccc2)C2C(=O)N(c4ccc(C)cc4)C(=O)C23)cc1` (stereo not shown) [MMV666101], the activity at 2 µM in test [1] is 107%; in test [2], 108%.
Consider `CN(C)c1ccc(-c2nc3cc(N)ccc3[nH]2)cc1` [MMV666102], for which the activity at 2 µM came out at 90% in test [1] and 98.7% in test [2].
With `CCn1c(SCC(=O)Nc2cc(C(F)(F)F)ccc2Cl)nc2ccccc2c1=O` [MMV666103], the results for the activity at 2 µM in test [1] and in test [2] were 113% and 100%, respectively.
`COCCN(C(=O)Cc1cccs1)C(C(=O)NCc1ccc(OC)cc1)c1ccc(C(C)C)cc1` (stereo not shown) [MMV666105]: the figures for the activity at 2 µM in test [1] and in test [2] were 113% and 100%, respectively.
For `O=C(NC1CCCCC1)C(c1cccs1)N(CCc1ccccc1)C(=O)c1ccco1` (stereo not shown) [MMV666106], the activity at 2 µM in test [1] came out at 105%; in test [2] it was 96.6%.
As for `O=C(CCc1ccco1)NC1CCN(CC2(c3ccc(Cl)cc3)CCC2)CC1` [MMV666108], the figures for the activity at 2 µM in test [1] and in test [2] were 114% and 100%, respectively.
As for `CCOC(=O)C1(Cc2ccccc2)CCN(Cc2cccc(OC)c2O)CC1` [MMV666109], the activity at 2 µM in test [1] was 97.9%; in test [2] it was 93.9%.
On to `C=C(C)CCC(C)N1CCC(N2CCC(C(=O)NCCc3ccccc3)CC2)CC1` (stereo not shown) [MMV666110], for which the activity at 2 µM in test [1] came out at 116%; in test [2], 108%.
On to `Oc1ccccc1CN1CCC2(CCCN(Cc3ccccc3F)C2)C1` (stereo not shown) [MMV666116], for which the figures for the activity at 2 µM in test [1] and in test [2] were 106% and 100%, respectively.
On the same counts, the results for `CC(C)(C)c1ccc(C(=O)Nc2c3c(nn2-c2cccc(Cl)c2)CSC3)cc1` [MMV666123] are 108% and 104%.
Regarding `CC(=O)c1ccc(NC(=O)CSc2nc(-c3ccccc3Cl)ns2)cc1` [MMV666124], the activity at 2 µM in test [1] came to 69.6%; in test [2] it was 96.8%.
On the same counts, the results for `CC1=C(CC(=O)c2cccc([N+](=O)[O-])c2)C(=O)c2ccccc2C1=O` [MMV666125] are 101% and 96.1%.
On to `CSC1=NC(=Nc2c(C)cccc2C)C2(CCC(C(C)(C)C)CC2)N1c1ccc(Cl)cc1` (stereo not shown) [MMV666596], for which the activity at 2 µM amounted to 107% in test [1] and 106% in test [2].
As for `CCCCCCc1cc2cc(-c3nc4ccccc4[nH]3)c(=Nc3ccccc3C)oc2cc1O` [MMV666597], the activity at 2 µM in test [1] worked out at 111%; in test [2] it was 102%.
On the same counts, the results for `O=c1nc(C=Cc2ccc(Br)cc2)oc2ccccc12` [MMV666599] are 94.3% and 102%.
For `CCOC(=O)c1c(C)n(-c2ccc(Cl)cc2)c2ccc(OC(=O)C=Cc3ccccc3)cc12` [MMV666600] the same measures were 100% and 101%.
On to `CCOC(=O)C1=C(c2ccccc2)N=c2sc(=Cc3cc(C)n(-c4ccc(F)cc4)c3C)c(=O)n2C1c1cccc(OC)c1OC` (stereo not shown) [MMV666601], for which the activity at 2 µM is 103% in test [1] and 105% in test [2].
For `CCOC(=O)C1=C(C)N=c2sc(=Cc3ccccc3O)c(=O)n2C1c1ccc(OC)c2ccccc12` (stereo not shown) [MMV666604], the activity at 2 µM in test [1] worked out at 117%; in test [2], 110%.
Consider `O=[N+]([O-])c1ccc(C=NNc2nc3ccccc3[nH]2)cc1` [MMV666607], for which the figures for the activity at 2 µM in test [1] and in test [2] were 102% and 103%, respectively.
Turning to `COc1ccccc1C(=O)ON=C(N)Cc1cccc2ccccc12` [MMV666686], the results for the activity at 2 µM in test [1] and in test [2] were 96.4% and 102%, respectively.
On to `COc1cc(C(=O)ON=C(N)Cc2cccc3ccccc23)cc(OC)c1OC` [MMV666687], for which the results for the activity at 2 µM in test [1] and in test [2] were 104% and 106%, respectively.
With `Cc1cc(C=C2SC(=Nc3ccccc3)N(C3CCCC3)C2=O)c(C)n1-c1ccc(Cl)cc1` [MMV666688], the values for the activity at 2 µM in test [1] and in test [2] were 98.7% and 99.9%, respectively.
On the same counts, the results for `COc1ccc(Nc2nc(NN=Cc3ccc(O)cc3)nc(Nc3ccc([N+](=O)[O-])cc3)n2)cc1` [MMV666689] are 93.1% and 95.2%.
On the same counts, the results for `COc1ccc(C=C2SC(=N)N(c3ccccc3OC)C2=O)cc1` [MMV666691] are 26.4% and 61.9%.
As for `CCCCCCc1cc2cc(-c3csc(C=Cc4ccccc4)n3)c(=O)oc2cc1O` [MMV666692], the activity at 2 µM in test [1] is 99.2%; in test [2], 102%.
In the case of `COc1cccc(C=Cc2nc(=O)c3ccccc3o2)c1OC` [MMV666693], the activity at 2 µM in test [1] stood at 29.9%; in test [2] it was 75%.
Turning to `CCOc1ccc(N2C(N)=NC(N)=NC2(C)C)cc1` [MMV667486], the activity at 2 µM in test [1] amounted to 98%; in test [2] it was 98.6%.
For `CN(C)c1ccc(N2C(N)=NC(N)=NC2(C)C)cc1` [MMV667487] the same measures were 98.1% and 97%.
In the case of `COc1ccc(CCn2c(=N)c(C(=O)NCc3cccnc3)cc3c(=O)n4cccc(C)c4nc32)cc1` [MMV667488], the activity at 2 µM amounted to 95.6% in test [1] and 105% in test [2].
On to `COC(=O)c1ccc(Cl)c2c1C1C=CCC1C(c1cccc3ccccc13)N2` (stereo not shown) [MMV667489], for which the activity at 2 µM was found to be 100% in test [1] and 103% in test [2].
For `COc1ccc(C2c3ccc4ccccc4c3Oc3ncn(CCCn4ccnc4)c(=N)c32)cc1OC` (stereo not shown) [MMV667490] the same measures were 98.4% and 102%.
Consider `COc1ccc(C2c3ccc4ccccc4c3Oc3ncn(CCCN(C)C)c(=N)c32)cc1` (stereo not shown) [MMV667491], for which the activity at 2 µM in test [1] stood at 69.1%; in test [2], 87.3%.
As for `CN(N=O)C1=C(NC2CCCCC2)C(=O)c2ccccc2C1=O` [MMV667492], the activity at 2 µM in test [1] is 90.8%; in test [2] it was 103%.
